Test results published in patent publication US8952059B2, “Acetyl L-carnitine for the preparation of a medicament for the prevention of painful peripheral neuropathy in patients with type 2 diabetes” (Sigma-Tau Industrie Farmaceutiche Riunite S.P.A., priority 2005, dated 2015).
Where two headings read alike, the source gives them in different places.

Tests used:
[1] = test system: diabetic patients suffering from neuropathy; conditions: cited from earlier work
[2] = test system: patients with type 2 diabetes (symptoms of painful peripheral neuropathy); experiment: Clinical Trial BM 14329: multicentre, randomised, double-blind, placebo-controlled, 52 weeks; format: in vivo, human; conditions: for Patients with symptom: Pain / Patients with symptom: Pain, hyperaesthesia, paraesthesia: 3.0 g/day; for Patients with symptom: Pain: n = 217 type 2 diabetes patients without the symptom at basal; for Patients with symptom: Pain, hyperaesthesia, paraesthesia: n = 217 type 2 diabetes patients without the symptoms at basal
Experimental: (§1) A multicentre, randomised, double-blind, placebo-controlled clinical trial of 52 weeks' duration was conducted in patients with type 2 diabetes suffering from diabetic peripheral neuropathy.
(§2) The patients were treated with acetyl L-carnitine at a dose of 0.5 grams or 1 gram, three times daily, or with placebo for 52 weeks.
(§3) The patients recruited into the trial were patients of male and female sex and were aged from 18 to 70 years, in whom diabetes had been diagnosed more than one year earlier and presenting HbA1c greater than 5.9%.
(§4) After 12, 26 and 52 weeks of treatment, the presence and intensity of pain, paraesthesia and hyperaesthesia, amongst other variables, were assessed as characteristic symptoms of painful peripheral neuropathy in patients who at the time of recruitment presented no such symptoms.

[3] = test system: patients with type 2 diabetes (symptoms of painful peripheral neuropathy); experiment: Clinical Trial BM 14330: multicentre, randomised, double-blind, placebo-controlled, same characteristics as Example 1; format: in vivo, human; conditions: for Patients with symptom: Pain / Patients with symptom: Pain, hyperaesthesia, paraesthesia: 3.0 g/day; for Patients with symptom: Pain: n = 181 type 2 diabetes patients without the symptom at basal; for Patients with symptom: Pain, hyperaesthesia, paraesthesia: n = 181 type 2 diabetes patients without the symptoms at basal
Experimental: as §1, §2, §3, §4
A multicentre randomised, double-blind, placebo-controlled clinical trial was conducted with the same characteristics as the clinical trial described in Example 1.

## CC(=O)O[C@H](CC(=O)[O-])C[N+](C)(C)C [Acetyl L-carnitine, acetyl L-carnitine]
[1]; diabetic patients suffering from neuropathy, Drugs 1997 September: 54 (3) 414-421
  Nerve conduction velocity: improves nerve conduction velocity
[1]; diabetic patients suffering from polyneuropathy, Journal of the Neurological Sciences, 1997, Suppl. to Vol 150
  Nerve conduction velocity: improves nerve conduction velocity
[1]; patients suffering from stabilised diabetic neuropathy, Diabetes Care, 2005, 28(1): 89-94
  Relief of pain symptoms and regeneration of nerve fibres: useful for relieving the pain symptoms and for regenerating nerve fibres
[2]; 12 weeks
  Patients with symptom: Pain: 17.1%
  Patients with symptom: Pain, hyperaesthesia, paraesthesia: 35.5%
[2]; 26 weeks
  Patients with symptom: Pain: 20.3%
  Patients with symptom: Pain, hyperaesthesia, paraesthesia: 38.6%
[2]; 52 weeks
  Patients with symptom: Pain: 29.5%
  Patients with symptom: Pain, hyperaesthesia, paraesthesia: 47.5%
[2]; patients without such symptoms at entry, only in type 2 diabetes and at the higher dose
  Prevention of symptoms typical of diabetic painful peripheral neuropathy (pain, hyperaesthesia, paraesthesia): capable not only of curing but also of preventing the symptoms
[2]; summary of Tables 1-3, 3 grams/day
  Ability to prevent the onset of symptoms associated with diabetic painful peripheral neuropathy: statistically significant ability to prevent the onset of symptoms
[2]; treatment for 26 or 52 weeks, effect better only in patients with type 2 diabetes
  Curative effect on symptoms of diabetic peripheral neuropathy already present at the start of the trial: capable of curing the symptoms of diabetic peripheral neuropathy
[3]; 12 weeks
  Patients with symptom: Pain: 27.6%
  Patients with symptom: Pain, hyperaesthesia, paraesthesia: 42.5%
[3]; 52 weeks
  Patients with symptom: Pain: 35.9%
  Patients with symptom: Pain, hyperaesthesia, paraesthesia: 48.1%
[3]; Table 5, head prints 12 weeks
  Patients with symptom: Pain: 28.7%
  Patients with symptom: Pain, hyperaesthesia, paraesthesia: 43.1%
[3]; summary of Tables 4-6, 3 grams/day
  Ability to prevent the onset of symptoms associated with diabetic painful peripheral neuropathy: statistically significant ability to prevent the onset of symptoms
